In ChEMBL document CHEMBL1201862, “PubChem BioAssay data set” (2004):
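Test compounds were applied to cells in 96-well plates for 48 hours at 5 doses. GI50 is the concentration that inhibits growth by half.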 Calls of active or inactive are those of the source. No stated cut-off is given here; in the data, active = GI50 up to about 1.1 µM and inactive = higher.

What was measured:
Assay in all cases: DTP human tumour cell line panel, 48 h
[1] = system: COLO 205
[2] = system: HCC 2998
[3] = system: HCT-116
[4] = system: K562
[5] = system: LOX IMVI
[6] = system: M14
[7] = system: NCI-H226
[8] = system: NCI-H23
[9] = system: NCI-H460
[10] = system: OVCAR-8
[11] = system: RXF 393
[12] = system: SK-MEL-28
[13] = system: SK-OV-3
[14] = system: SN12C
[15] = system: SW-620
[16] = system: UACC-62
[17] = system: EKVX
[18] = system: HT-29
[19] = system: IGROV-1

SMILES	GI50 [1]	GI50 [2]	GI50 [3]	GI50 [4]	GI50 [5]	GI50 [6]	GI50 [7]	GI50 [8]	GI50 [9]	GI50 [10]	GI50 [11]	GI50 [12]	GI50 [13]	GI50 [14]	GI50 [15]	GI50 [16]	GI50 [17]	GI50 [18]	GI50 [19]
COc1ccccc1N1C(=O)/C(=C\c2cc(OC)c(OC)c(OC)c2)S(=O)(=O)C1c1ccccc1 (stereo unspecified)	26.9 µM (inactive)	79.4 µM (inactive)	23.8 µM (inactive)	28.6 µM (inactive)	29.4 µM (inactive)	31 µM (inactive)	44.8 µM (inactive)	33.9 µM (inactive)	61.1 µM (inactive)	37.2 µM (inactive)	10.6 µM (inactive)	27.4 µM (inactive)	20.6 µM (inactive)	73.6 µM (inactive)	30 µM (inactive)	29.9 µM (inactive)	–	–	–
Cc1cccc(-n2c(N)c(-c3nc4ccccc4[nH]3)sc2=S)c1	23.8 µM (inactive)	> 10 µM (inactive)	–	29.2 µM (inactive)	26.8 µM (inactive)	25.3 µM (inactive)	32.7 µM (inactive)	49.8 µM (inactive)	–	28.4 µM (inactive)	33.3 µM (inactive)	37 µM (inactive)	47.9 µM (inactive)	25.3 µM (inactive)	31.4 µM (inactive)	18.4 µM (inactive)	48.4 µM (inactive)	23.1 µM (inactive)	30.8 µM (inactive)
CC12CC(=O)NN=C1c1ccccc1C2 (stereo unspecified)	> 100 µM (inactive)	> 100 µM (inactive)	> 100 µM (inactive)	> 100 µM (inactive)	> 100 µM (inactive)	> 100 µM (inactive)	> 100 µM (inactive)	> 100 µM (inactive)	> 100 µM (inactive)	> 100 µM (inactive)	> 100 µM (inactive)	> 100 µM (inactive)	> 100 µM (inactive)	> 100 µM (inactive)	> 100 µM (inactive)	> 100 µM (inactive)	98.2 µM (inactive)	> 100 µM (inactive)	> 100 µM (inactive)
CCOC(=O)Cn1c(=O)[nH]c(=O)c2c1ncn2Cc1ccccc1	> 100 µM (inactive)	> 100 µM (inactive)	> 100 µM (inactive)	> 100 µM (inactive)	> 100 µM (inactive)	> 100 µM (inactive)	> 100 µM (inactive)	> 100 µM (inactive)	> 100 µM (inactive)	> 100 µM (inactive)	> 100 µM (inactive)	> 100 µM (inactive)	> 100 µM (inactive)	> 100 µM (inactive)	> 100 µM (inactive)	> 100 µM (inactive)	> 100 µM (inactive)	> 100 µM (inactive)	> 100 µM (inactive)
NC(=S)N/N=C(/CCN1CCCC1)CC(C1=C(O)C2=CCCCC2OC1=O)c1ccccc1 (stereo unspecified)	54.1 µM (inactive)	> 100 µM (inactive)	> 100 µM (inactive)	> 100 µM (inactive)	> 100 µM (inactive)	> 100 µM (inactive)	> 100 µM (inactive)	> 100 µM (inactive)	> 100 µM (inactive)	> 100 µM (inactive)	> 100 µM (inactive)	–	> 100 µM (inactive)	> 100 µM (inactive)	37.8 µM (inactive)	> 100 µM (inactive)	> 100 µM (inactive)	> 100 µM (inactive)	> 100 µM (inactive)
COc1ccc(-c2c3ccccc3c(-c3ccc(OC)cc3)c3ccccc23)cc1	> 100 µM (inactive)	> 100 µM (inactive)	> 100 µM (inactive)	> 100 µM (inactive)	> 100 µM (inactive)	> 100 µM (inactive)	> 100 µM (inactive)	> 100 µM (inactive)	> 100 µM (inactive)	> 100 µM (inactive)	> 100 µM (inactive)	> 100 µM (inactive)	> 100 µM (inactive)	> 100 µM (inactive)	> 100 µM (inactive)	> 100 µM (inactive)	> 100 µM (inactive)	> 100 µM (inactive)	> 100 µM (inactive)
C[N+]1(C)C[C@@H](O)C[C@@H]1C(=O)[O-] [BETONICINE]	> 100 µM (inactive)	> 100 µM (inactive)	> 100 µM (inactive)	> 100 µM (inactive)	> 100 µM (inactive)	> 100 µM (inactive)	> 100 µM (inactive)	> 100 µM (inactive)	> 100 µM (inactive)	> 100 µM (inactive)	> 100 µM (inactive)	> 100 µM (inactive)	> 100 µM (inactive)	> 100 µM (inactive)	> 100 µM (inactive)	> 100 µM (inactive)	> 100 µM (inactive)	> 100 µM (inactive)	> 100 µM (inactive)
CCCN(CCC)C(=O)Cc1c2n(c3ccccc13)Cc1ccccc1-2	95.3 µM (inactive)	> 100 µM (inactive)	28.8 µM (inactive)	> 100 µM (inactive)	83.4 µM (inactive)	> 100 µM (inactive)	> 100 µM (inactive)	45.7 µM (inactive)	63.7 µM (inactive)	> 100 µM (inactive)	24.4 µM (inactive)	> 100 µM (inactive)	> 100 µM (inactive)	> 100 µM (inactive)	> 100 µM (inactive)	21.1 µM (inactive)	> 100 µM (inactive)	61.8 µM (inactive)	–
O=C(O)[C@H](NS(=O)(=O)c1ccc(F)cc1)c1ccccc1	> 100 µM (inactive)	> 100 µM (inactive)	> 100 µM (inactive)	> 100 µM (inactive)	> 100 µM (inactive)	> 100 µM (inactive)	> 100 µM (inactive)	> 100 µM (inactive)	> 100 µM (inactive)	> 100 µM (inactive)	> 100 µM (inactive)	> 100 µM (inactive)	> 100 µM (inactive)	> 100 µM (inactive)	> 100 µM (inactive)	> 100 µM (inactive)	> 100 µM (inactive)	> 100 µM (inactive)	> 100 µM (inactive)
O=[N+]([O-])c1ccc(C2=Nn3cnnc3SC2)o1	–	15.8 µM (inactive)	14 µM (inactive)	21.5 µM (inactive)	2.06 µM (inactive)	15.1 µM (inactive)	26.4 µM (inactive)	> 10 µM (inactive)	10.6 µM (inactive)	20.1 µM (inactive)	18.4 µM (inactive)	16.6 µM (inactive)	> 10 µM (inactive)	16.5 µM (inactive)	12.2 µM (inactive)	> 10 µM (inactive)	–	11.3 µM (inactive)	> 10 µM (inactive)
O/N=C1/C(=C/c2ccc(OCc3ccccc3)cc2)CCCC1C(NO)c1ccc(OCc2ccccc2)cc1 (stereo unspecified)	16.9 µM (inactive)	46 µM (inactive)	8.97 µM (inactive)	9.53 µM (inactive)	4.05 µM (inactive)	4.98 µM (inactive)	> 100 µM (inactive)	12.7 µM (inactive)	14.2 µM (inactive)	26.7 µM (inactive)	3.42 µM (inactive)	48.4 µM (inactive)	> 100 µM (inactive)	3.31 µM (inactive)	17.4 µM (inactive)	–	5.43 µM (inactive)	5.24 µM (inactive)	> 100 µM (inactive)
O=C1C2=C(N[C@@H](c3ccccc3)[C@H](c3ccccc3)N2)C(=O)c2ccccc21	–	> 100 µM (inactive)	> 100 µM (inactive)	> 100 µM (inactive)	> 100 µM (inactive)	> 100 µM (inactive)	> 100 µM (inactive)	> 100 µM (inactive)	> 100 µM (inactive)	> 100 µM (inactive)	> 100 µM (inactive)	> 100 µM (inactive)	> 100 µM (inactive)	> 100 µM (inactive)	> 100 µM (inactive)	> 100 µM (inactive)	–	> 100 µM (inactive)	> 100 µM (inactive)
Cc1cc(N(CCC#N)CCC#N)ccc1/C(Sc1ccccc1)=C(\NC(=O)/C=C/c1ccccc1)C(=O)Sc1ccccc1	2.55 µM (inactive)	11.4 µM (inactive)	2.17 µM (inactive)	2.41 µM (inactive)	0.83 µM (active)	1.82 µM (inactive)	2.56 µM (inactive)	2.22 µM (inactive)	7.01 µM (inactive)	2.94 µM (inactive)	1.56 µM (inactive)	4.99 µM (inactive)	5.55 µM (inactive)	1.7 µM (inactive)	4.12 µM (inactive)	2.82 µM (inactive)	6.18 µM (inactive)	2.91 µM (inactive)	0.805 µM (active)
CC(=O)Nc1[nH]n(C)c(=O)c1-c1nnc(C)s1	> 100 µM (inactive)	> 100 µM (inactive)	> 100 µM (inactive)	> 100 µM (inactive)	> 100 µM (inactive)	> 100 µM (inactive)	> 100 µM (inactive)	> 100 µM (inactive)	> 100 µM (inactive)	> 100 µM (inactive)	> 100 µM (inactive)	> 100 µM (inactive)	> 100 µM (inactive)	> 100 µM (inactive)	> 100 µM (inactive)	–	> 100 µM (inactive)	> 100 µM (inactive)	> 100 µM (inactive)
O=C(Nc1ccc([N+](=O)[O-])cc1[N+](=O)[O-])C(=O)C(C(=O)c1ccc(Cl)c(Cl)c1)C1OC(=O)c2ccccc21 (stereo unspecified)	21.6 µM (inactive)	> 10 µM (inactive)	19.4 µM (inactive)	28.4 µM (inactive)	17.5 µM (inactive)	> 10 µM (inactive)	12.4 µM (inactive)	17.3 µM (inactive)	> 10 µM (inactive)	15.2 µM (inactive)	11.8 µM (inactive)	–	23.2 µM (inactive)	24.1 µM (inactive)	20.6 µM (inactive)	16.3 µM (inactive)	22.1 µM (inactive)	25.8 µM (inactive)	22.2 µM (inactive)
